Data on ten compounds can be found in patent publication US4927941A, “Fluorine-containing nitroazole derivatives and radiosensitizer comprising the same” (Yasunori Nishijima & Daikin Industries Ltd., priority 1987, dated 1990).

What is called LD50 is the dose at which mortality reaches 50%. Read a low LD50 as greater toxicity.

The test system of one data set is hypoxic cells.
Assay: not given
The conditions noted are these: administered in human beings; cited from earlier work.
With `COCC(O)Cn1ccnc1[N+](=O)[O-]` (stereo not drawn) [Misonidazole, 1-(2-Nitro-1-imidazolyl)-3-methoxy-2-propanol], the “sensitizing effect in human beings” value is reported as “No sensitizing effect was confirmed”.

A further data set concerns EMT-6 tumor cells. Put plainly: Radiosensitization effect on tumor transplanted in animal (ER in vivo). The arrangement: species or system Balb/c mouse. The note with it: in a low concentration.
Experimental: To both thighs of male Balb/c mouse (8 weeks; 4 mice in a group), 10^5 of EMT-6 tumor cells were subcutaneously inoculated. After the diameter of the tumor reached about 1 cm, a solution of a compound to be examined in saline was intraperitonealy administered (200 mg/kg). After 40 minutes from the administration, X-ray was irradiated at a dose rate of 450 rad/min. for 5 minutes and then the mouse was sacrificed.
After the mouse was systemically sterilized, the tumor was taken out and the tissue was homogenated. Then, 22 ml of trypsin was added to the homogenate and stirred for 50 minutes at 37° C. The number of cells in the supernatant was counted. A predetermined amount of the cells was introduced in a plastic plate having a diameter of about 5 cm. To the plate, 5 ml of medium was added and cultured in a CO2 incubator. The plates containing the irradiated and unirradiated cells were removed from the incubator after 9 days and 10 days incubation, respectively. The cells were fixed by methanol and stained by Giemsa stain. Then, the number of colonies formed were counted.
The survival rate was calculated with using the unirradiated cells as control.
Take `O=[N+]([O-])c1ncn(CC(O)CF)n1` (stereo not drawn) [(13), 1-(3'-fluoro-2'-hydroxypropyl)-3-nitro-1,2,4-triazole]: the “ER in vivo in comparison with comparative compounds (1) and (2)” value is recorded as “comparable”.

Test system in a further data set: not listed separately
Put plainly: in vivo.
Settings: not given
`COCCNC(=O)C(F)(F)Cn1cnc([N+](=O)[O-])n1` [(2), 3-(3'-nitro-1',2',4'-triazol-1'-yl)-2,2-difluoropropionic acid methoxyethylamide] displayed an LD50 greater than 3000 mg/kg.

For `CC(C)NC(=O)C(F)(F)Cn1cnc([N+](=O)[O-])n1` [(53), 3-(3'-nitro-1', 2', 4'-triazol-1'-yl)-2,2-difluoropropionic acid isopropylamide], the LD50 was found to be 600 mg/kg.

In turn, `O=[N+]([O-])c1ncn(CC(O)CF)n1` (stereo not drawn) [(13), 1-(3'-fluoro-2'-hydroxypropyl)-3-nitro-1,2,4-triazole] displayed an LD50 of 700 mg/kg.

For `COCC(F)Cn1cnc([N+](=O)[O-])n1` (stereo not drawn) [(7), 1-(2'-fluoro-3'-methoxypropyl)-3-nitro-1,2,4-triazole], the median lethal dose (LD50) is greater than 2000 mg/kg.

The compound `CC(O)CNC(=O)C(F)(F)Cn1cnc([N+](=O)[O-])n1` (stereo not drawn) [(60), 3-(3'-nitro-1', 2', 4'-triazol-1'-yl)-2,2-difluoropropionic acid isopropanolamide] came in with a median lethal dose (LD50) of 1200 mg/kg. As for `NC(=O)CCNC(=O)C(F)(F)Cn1cnc([N+](=O)[O-])n1` [(62), 1-(3'-nitro-1',2',4'-triazol-1'-yl)-2,2-difluoropropionic acid 3-alanylamide], the LD50 was 1500 mg/kg. Same read-out and setting: as for `O=[N+]([O-])c1ncn(CC(F)COCC(O)CO)n1` (stereo not drawn) [(65), 1-(2'-fluoro-4'-oxo-6',7'-dihydroxyheptyl)-3-nitro-1,2,4-triazole], the figure is 1600 mg/kg; as for `O=C(NCCO)C(F)(F)Cn1cnc([N+](=O)[O-])n1` [(3), 3-(3'-nitro-1',2',4'-triazol-1'-yl)-2,2-difluoropropionic acid hydroxyethylamide], 1600 mg/kg. On to `NC(=O)C(F)(F)Cn1cnc([N+](=O)[O-])n1` [(43), 3-(3'-nitro-1',2', 4'-triazol-1'-yl)-2,2-difluoropropionamide], for which the LD50 came to 700 mg/kg.

The next data set relates to hypoxic cells.
Assay: not given
The note with it: versus no Misonidazole; cited from earlier work.
Consider `COCC(O)Cn1ccnc1[N+](=O)[O-]` (stereo not drawn) [Misonidazole, 1-(2-Nitro-1-imidazolyl)-3-methoxy-2-propanol], for which the “effectiveness as hypoxic cell sensitizer” value is on record as “about twice as effective as when no Misonidazole is used”.
